These results are taken from ChEMBL document CHEMBL1130811, “An enantioselective fluorimetric assay for alcohol dehydrogenases using albumin-catalyzed beta-elimination of umbelliferone” (Bioorg Med Chem Lett, 1998).

The structures appear in SMILES notation.

Data set [1] can be described thus: Rate constant of the bovine serum albumin catalyzed reaction of the compound. The format is ADME, Bos taurus. As to conditions: cattle.
Data set [2] in a line: Half life in presence of 2 mg/mL BSA at pH 8.8. In kind it is ADME, Bos taurus. The settings on record: cattle, bovine serum albumin solution.
A short description of data set [3]: Specificity constant of the bovine serum albumin catalyzed reaction expressed as (kcat/KM)/kuncat. In kind it is ADME, Bos taurus. The settings on record: cattle.
Data set [4] is described as follows: Michaelis-Menten kinetics of the bovine serum albumin catalyzed reaction of the compound. As to conditions: cattle. In kind it is ADME, Bos taurus.
Data set [5] has as its target Alcohol dehydrogenase (Equus caballus) (UniProt P00327+P00328). The data set is described as follows: Compound was tested for enantioselectivity of alcohol dehydrogenase in horse liver at a concentration of 10 ug/mL.
In data set [6] the test system is alcohol dehydrogenase (Thermoanaerobacter brockii). Nature of the data set: Compound was tested for enantioselectivity of alcohol dehydrogenase in thermoanaerobium brockii at a concentration of 5 ug/mL.
The test system of data set [7] is alcohol dehydrogenase (Lactobacillus kefiri). The data set is described as follows: Compound was tested for enantioselectivity of alcohol dehydrogenase in lactobacillus kefir at a concentration of 50 ug/mL.
Data set [8] has as its system alcohol dehydrogenase (Saccharomyces cerevisiae). Nature of the data set: Compound was tested for enantioselectivity of alcohol dehydrogenase in yeast at a concentration of 100 ug/mL.
A short description of data set [9]: Specificity constant of the BSA-catalyzed deprotonation of compound at pH 9. In kind it is ADME, Bos taurus. The settings on record: cattle.

In the case of `CC(=O)CCOc1ccc2ccc(=O)oc2c1`, in data set [1], the k cat is 0.0078 s⁻¹ and the “k cat/Kuncat” value was 390. For the same compound, the half-life in data set [2] was found to be 4 min. Also, the “(kcat/KM)/kuncat” value in [3] amounted to 2600000 M⁻¹. For the same compound, the Km in data set [4] came to 150 µM.

In the case of `C[C@H](O)CCOc1ccc2ccc(=O)oc2c1`, the Selectivity in [5] worked out at 0.00246 µM/s; in [6], 0.00132 µM/s; in data set [7] it was 2.67e-05 µM/s; in [8], 0.000599 µM/s.

Regarding `C[C@@H](O)CCOc1ccc2ccc(=O)oc2c1`, the Selectivity in data set [5] was 0.00014 µM/s; in data set [6] it was 6.61e-06 µM/s; in [7], 0.000773 µM/s; in data set [8] it was 3.31e-06 µM/s.

On to `c1cnoc1` [ISOXAZOLE], for which, in data set [9], the “(kcat/KM)/kuncat” value was 3600000 M⁻¹.

As usually defined, the half-life is the time needed for the level to fall by half in the phase considered. The term Km denotes the substrate concentration at which the rate is half of its maximum.
